Assay results published in patent US20120157439A1, “RAF INHIBITOR COMPOUNDS AND METHODS OF USE THEREOF” (GENENTECH, INC., priority 2009, published 2012).
Read-outs that look alike come from different tables or passages of the source.

Target: T1, V600E full-length B-Raf (Homo sapiens, UniProt P15056, V600E)
T1 construct: 1 μM FSBA-MEK and 20 nM V600E full-length B-Raf; made in house; host or cells: sf9 insect cells (baculovirus)
Experiment: B-Raf IC50 Assay (B-RAF V600E inhibition assay, Example A)
Type: biochemical
Summary of the method: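 Full-length V600E B-Raf (20 nM, from Sf9 baculovirus) was preincubated 15 min with 1 μM FSBA-modified wild-type MEK in pH 7.2 Pipes/KCl/MgCl2 buffer, then started with 4 μM ATP plus [γ-33P]ATP. After 60 min at 22 °C, TCA-quenched product was filter-captured and 33P incorporation counted by scintillation.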

[1] = B-Raf V600E assay of Example A: less than about 1 μM, read-out: IC50
[2] = incorporation of radio labeled phosphate from [γ-33P]ATP into FSBA-modified wild-type MEK, 4 μM ATP, 20 nM V600E full-length B-Raf, 60-minute incubation, 22° C., read-out: BRAF V600E IC50
[3] = B-Raf V600E assay of Example A: less than 100 nM, read-out: IC50

T1 sequence (P15056 whole entry V600E): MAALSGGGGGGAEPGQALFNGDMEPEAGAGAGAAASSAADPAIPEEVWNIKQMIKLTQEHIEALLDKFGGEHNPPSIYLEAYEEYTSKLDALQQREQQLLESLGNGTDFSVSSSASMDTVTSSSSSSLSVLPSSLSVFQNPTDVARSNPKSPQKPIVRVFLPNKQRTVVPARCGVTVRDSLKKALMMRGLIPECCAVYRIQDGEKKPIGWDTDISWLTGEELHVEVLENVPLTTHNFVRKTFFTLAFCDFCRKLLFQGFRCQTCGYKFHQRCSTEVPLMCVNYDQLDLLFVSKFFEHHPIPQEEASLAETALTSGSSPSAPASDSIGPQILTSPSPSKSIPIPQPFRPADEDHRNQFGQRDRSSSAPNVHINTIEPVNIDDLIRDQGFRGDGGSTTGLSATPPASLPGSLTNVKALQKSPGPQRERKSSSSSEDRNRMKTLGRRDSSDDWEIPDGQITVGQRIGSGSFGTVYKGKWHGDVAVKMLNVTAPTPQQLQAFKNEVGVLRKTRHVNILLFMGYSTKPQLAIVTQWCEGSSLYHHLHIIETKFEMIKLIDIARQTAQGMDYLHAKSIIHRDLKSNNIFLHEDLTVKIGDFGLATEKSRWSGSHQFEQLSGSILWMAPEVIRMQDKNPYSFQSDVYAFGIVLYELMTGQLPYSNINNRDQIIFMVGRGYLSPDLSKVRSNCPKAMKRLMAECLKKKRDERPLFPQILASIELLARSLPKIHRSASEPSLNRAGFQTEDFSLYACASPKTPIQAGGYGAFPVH

| SMILES | IC50 [1] [nM] | IC50 [2] [nM] | IC50 [3] [nM] |
| --- | --- | --- | --- |
| CCCS(=O)(=O)Nc1ccc(F)c(NC(=O)c2snc3c(NC4CC4)ncnc23)c1F [Example 36, 7-(Cyclopropylamino)-N-(2,6-difluoro-3-(propylsulfonamido)phenyl)isothiazolo[4,3-d]pyrimidine-3-carboxamide] | < 1000 | 194 |  |
| Nc1ncnc2c(C(=O)Nc3c(F)ccc(NS(=O)(=O)CC4CC4)c3F)csc12 [Example 18, 4-Amino-thieno[3,2-d] pyrimidine-7-carboxylic acid (3-cyclopropyl-methanesulfonyl-amino-2,6-di-fluoro-phenyl)-amide] | < 1000 | 7.4 | < 100 |
| CCNc1ncnc2c(C(=O)Nc3c(Cl)ccc(NS(=O)(=O)CCCF)c3Cl)csc12 [Example 83, 4-Ethylamino-thieno[3,2-d] pyrimidine-7-carboxylic acid [2,6-dichloro-3-(3-fluoro-propane-1-sulfonyl-amino)-phenyl]-amide] | < 1000 | 0.32 | < 100 |
| O=C(Nc1c(F)c(F)cc(NS(=O)(=O)CCCF)c1F)c1csc2c(NC3CC3)ncnc12 [Example 97, 4-Cyclopropyl-amino-thieno [3,2-d] pyrimidine-7-carboxylic acid [2,3,6-trifluoro-5-(3-fluoro-propane-1-sulfonyl-amino)-phenyl]-amide] | < 1000 | 0.71 | < 100 |
| CCCS(=O)(=O)Nc1ccc(F)c(NC(=O)c2c[nH]c3c(C)ncnc23)c1F [Example 106, 4-Methyl-5H-pyrrolo[3,2-d]pyrimidine-7-carboxylic acid [2,6-difluoro-3-(propane-1-sulfonylamino)-phenyl]-amide] | < 1000 | 189 |  |
| CCCS(=O)(=O)Nc1ccc(Cl)c(NC(=O)c2csc3cncnc23)c1Cl [Example 107, Thieno[3,2-d]pyrimidine-7-carboxylic acid [2,6-dichloro-3-(propane-1-sulfonylamino)-phenyl]-amide] | < 1000 | 9.6 | < 100 |
| Nc1ncnc2c(C(=O)Nc3c(F)ccc(NS(=O)(=O)CCCF)c3F)csc12 [Example 14, 4-Amino-thieno[3,2-d] pyrimidine-7-carboxylic acid [2,6-difluoro-3-(3-fluoro-propane-1-sulfonylamino)-phenyl]-amide] | < 1000 | 0.6 | < 100 |
| CCCS(=O)(=O)Nc1ccc(F)c(NC(=O)c2c[nH]c3c(NC)ncnc23)c1F [Example 103, 4-Methylamino-5H-pyrrolo[3,2-d]pyrimidine-7-carboxylic acid [2,6-difluoro-3-(propane-1-sulfonylamino)-phenyl]-amide] | < 1000 | 115 |  |
| CCCS(=O)(=O)Nc1ccc(F)c(NC(=O)c2csc3c(N)ncnc23)c1 [Example 27, 4-Amino-thieno[3,2-d]pyrimidine-7-carboxylic acid[2-fluoro-5-(propane-1-sulfonylamino)-phenyl]-amide] | < 1000 | 125 |  |
| CCCS(=O)(=O)Nc1ccc(Cl)c(NC(=O)c2csc3c(NC4CCNCC4)ncnc23)c1Cl [Example 79, 4-(Piperidin-4-ylamino)-thieno[3,2-d] pyrimidine-7-carboxylic acid [2,6-dichloro-3-(propane-1-sulfonyl-amino)-phenyl]amide] | < 1000 | 159 |  |
| CCCS(=O)(=O)Nc1cc(F)c(F)c(NC(=O)c2csc3c(N)ncnc23)c1F [Example 23, 4-Amino-thieno[3,2-d] pyrimidine-7-carboxylic acid [2,3,6-trifluoro-5-(pro-pane-1-sulfonyl-amino)-phenyl]-amide] | < 1000 | 0.8 | < 100 |
| CCCS(=O)(=O)Nc1ccc(F)c(NC(=O)c2ccc3c(N)ncnn23)c1F [Example 101, 4-Amino-pyrrolo[2,1-f][1,2,4]triazine-7-carboxylic acid [2,6-difluoro-3-(propane-1-sulfonylamino)-phenyl]-amide] | < 1000 | 2.5 | < 100 |
| Nc1ncnc2c(C(=O)Nc3c(F)c(F)cc(NS(=O)(=O)CCCF)c3F)csc12 [Example 10, 4-Amino-thieno[3,2-d]pyrimidine-7-carboxylic acid[2,3,6-trifluoro-5-(3-fluoro-propane-1-sulfonylamino)-phenyl]-amide] | < 1000 | 0.72 | < 100 |
| CCCS(=O)(=O)Nc1ccc(F)c(NC(=O)c2nsc3c(N)ncnc23)c1F [Example 30, 7-Amino-isothiazolo[4,5-d]pyrimidine-3-carboxylic acid [2,6-difluoro-3-(propane-1-sulfonylamino)-phenyl]-amide] | < 1000 | 1.2 | < 100 |
| CCCS(=O)(=O)Nc1cc(F)c(F)c(NC(=O)c2csc3c(NC4CCOC4)ncnc23)c1F (centres unmarked) [Example 88, 4-(Tetrahydro-furan-3-ylamino)-thieno[3,2-d] pyrimidine-7-carboxylic acid [2,3,6-trifluoro-5-(propane-1-sulfonyl-amino)-phenyl]-amide] | < 1000 | 120 |  |

The remaining lines, values ahead:

| IC50 [1] [nM] | IC50 [2] [nM] | IC50 [3] [nM] | SMILES |
| --- | --- | --- | --- |
| < 1000 | 2.2 | < 100 | CCCS(=O)(=O)Nc1ccc(Cl)c(NC(=O)c2csc3c(NCC(F)F)ncnc23)c1Cl [Example 69, 4-(2,2-Difluoro-ethylamino)-thieno[3,2-d] pyrimidine-7-carboxylic acid [2,6-dichloro-3-(propane-1-sulfonyl-amino)-phenyl]-amide] |
| < 1000 | 2.4 | < 100 | CCCS(=O)(=O)Nc1ccc(Cl)c(NC(=O)c2csc3c(NC4CCC4)ncnc23)c1Cl [Example 72, 4-Cyclobutyl-amino-thieno [3,2-d] pyrimidine-7-carboxylic acid [2,6-dichloro-3-(propane-1-sulfonyl-amino)-phenyl]-amide] |
| < 1000 | 4.7 | < 100 | CCCS(=O)(=O)Nc1ccc(F)c(NC(=O)c2csc3c(NC4CC4)ncnc23)c1F [Example 47] |
| < 1000 | 36.5 | < 100 | CCCS(=O)(=O)Nc1ccc(F)c(NC(=O)c2csc3c(NC(C)C)ncnc23)c1F [Example 50, 4-Isopropyl-amino-thieno [3,2-d] pyrimidine-7-carboxylic acid [2,6-difluoro-3-(propane-1-sulfonylamino)-phenyl]-amide] |
| < 1000 | 75.1 | < 100 | CCCS(=O)(=O)Nc1ccc(F)c(NC(=O)c2csc3c(NCC4CC4)ncnc23)c1F [Example 56, 4-(Cyclopropyl-methylamino)-thieno[3,2-d] pyrimidine-7-carboxylic acid [2,6-difluoro-3-(propane-1-sulfonylamino)-phenyl]-amide] |
| < 1000 | 46.5 | < 100 | CCCS(=O)(=O)Nc1ccc(F)c(NC(=O)c2csc3c(C)ncnc23)c1Cl [Example 38, 4-Methyl-thieno[3,2-d]pyrimidine-7-carboxylic acid [2-chloro-6-fluoro-3-(propane-1-sulfonylamino)-phenyl]-amide] |
| < 1000 | 11.4 | < 100 | CCCS(=O)(=O)Nc1ccc(F)c(NC(=O)c2csc3c(NCC)ncnc23)c1F [Example 48, 4-Ethylamino-thieno[3,2-d] pyrimidine-7-carboxylic acid [2,6-difluoro-3-(propane-1-sulfonylamino)-phenyl]-amide] |
| < 1000 | 14 | < 100 | CCCS(=O)(=O)Nc1ccc(Cl)c(NC(=O)c2csc3c(NC#N)ncnc23)c1Cl [Example 73, 4-Cyano-amino-thieno[3,2-d] pyrimidine-7-carboxylic acid [2,6-dichloro-3-(propane-1-sulfonyl-amino)-phenyl]amide] |
| < 1000 | 45.5 | < 100 | CCCS(=O)(=O)Nc1ccc(F)c(NC(=O)c2csc3c(NC4CCC4)ncnc23)c1F [Example 55, 4-Cyclobutyl-amino-thieno [3,2-d] pyrimidine-7-carboxylic acid [2,6-difluoro-3-(propane-1-sulfonylamino)-phenyl]-amide] |
| < 1000 | 9.2 | < 100 | CCCS(=O)(=O)Nc1ccc(F)c(NC(=O)c2csc3c(NOC)ncnc23)c1Cl [Example 37, 4-Methoxyamino-thieno[3,2-d]pyrimidine-7-carboxylic acid [2-chloro-6-fluoro-3-(propane-1-sulfonylamino)-phenyl]-amide] |
| < 1000 | 0.2 | < 100 | CCCS(=O)(=O)Nc1ccc(Cl)c(NC(=O)c2csc3c(NC4CC4)ncnc23)c1Cl [Example 66, 4-Cyclopropylamino-thieno[3,2-d]pyrimidine-7-carboxylic acid [2,6-dichloro-3-(propane-1-sulfonylamino)-phenyl]-amide] |
| < 1000 | 15.7 | < 100 | CCCS(=O)(=O)Nc1ccc(F)c(NC(=O)c2csc3c(NCCF)ncnc23)c1F [Example 52, 4-(2-Fluoro-ethylamino)-thieno[3,2-d] pyrimidine-7-carboxylic acid [2,6-difluoro-3-(propane-1-sulfonylamino)-phenyl]-amide] |
| < 1000 | 221 |  | CCCC(C)Nc1ncnc2c(C(=O)Nc3c(F)ccc(NS(=O)(=O)CCC)c3F)csc12 (centres unmarked) [Example 51, 4-(1-Methyl-butylamino)-thieno[3,2-d] pyrimidine-7-carboxylic acid [2,6-difluoro-3-(propane-1-sulfonylamino)-phenyl]-amide] |
